Measurements reported in article PMC10011573, “Development of novel broad-spectrum antimicrobial lipopeptides derived from plantaricin NC8 β” (Scientific Reports, 2023).
In brackets after ≈: the same amount, converted by molar mass. Where two headings read alike, the source gives them in different places. Residues, ends and D or L forms follow the SMILES beside them. *: point of attachment. Pentanoyl = CCCCC(=O)*

How the values were obtained:
human erythrocytes = assay: Hemolytic activity; format: cell-based; details: 15% suspension in PBS, 1 h, 37 °C, absorbance 540 nm, highest tested concentration 100 µM
[1] = Carboxyfluorescein release assay, mammalian liposome model; format: biochemical; details: 65:5:30 POPC:POPS:Chol. liposomes, 25 µM lipid, 10 mM PBS pH 7.4, 10^–5–10^2 µM peptide, 60 min, fluorescence, Hill fit, n = 3; read-out: EC50 Mammalial (concentration that triggers 50% CF release)
Procedure, shortened: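 CF-loaded extruded 0.1 µm unilamellar liposomes: bacterial POPC:POPG 75:25, mammalian POPC:POPS:Chol 65:5:30. Liposomes at 25 µM lipid in PBS pH 7.4 incubated with peptide (10^–5–10^2 µM; n = 3), fluorescence read every 2.5 min for 1 h. Release normalized to 1% Triton X-100; EC50 from Hill-1 fit.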

[2] = Dynamic light scattering, critical aggregation concentration; format: physicochemical; details: DLS scattering intensity at 90°, 10 mM PBS pH 7.4, serial dilution 100 µM to 0.01 nM, 22 °C, average of 10 runs of 30 s; estimated
Method: Lipopeptide aggregation was evaluated on a ALV/CGS-8F Platform (ALV-GmbH, Langen, Germany) equipped with a […] He–Ne laser. Scattered light was collected at 90°. PBS (10 mM, pH 7.4) was chosen as buffer, and filtered with a 0.22 µm filter prior to use. The samples were prepared in a cylindrical glass cuvette immersed in refractive-index matching toluene. The peptides were serially diluted between 100 µM and 0.01 nM, sonicated for 1 min and incubated for 5 min at 22 °C and vortexed prior to measuring. The temperature was controlled throughout the experiment with the use of a circulating water bath. Data were analysed with ALV-Correlator (Version 3.0, ALV-GmbH, Langen, Germany) software, and the scattering intensity was obtained through an average of 10 consecutive 30 s runs.

E. coli = test system: E. coli
Method: (§1) In order to evaluate the risk of the development of resistance towards the lipopeptide, a serial passage assay was conducted. […] MIC and MBC were determined for passages 0, 10, 20 and 30, using the broth microdilution method and compared with the unexposed bacteria (passage 0).

S. aureus = test system: S. aureus
Method: as §1

[3] = E. coli p0 (unexposed bacteria, passage 0)
[4] = E. coli p10, cultured with 1 µM L-6-C5 in LB-broth
[5] = E. coli p20, cultured with 1 µM L-6-C5 in LB-broth
[6] = E. coli p30, cultured with 1 µM L-6-C5 in LB-broth
[7] = S. aureus p0 (unexposed bacteria, passage 0)
[8] = S. aureus p10, cultured with 1 µM L-6-C5 in LB-broth
[9] = S. aureus p20, cultured with 1 µM L-6-C5 in LB-broth
[10] = S. aureus p30, cultured with 1 µM L-6-C5 in LB-broth

CCCCC(=O)N[C@@H](CC(C)C)C(=O)NCC(=O)N[C@H](C(=O)N[C@@H](CCCCN)C(=O)N[C@H](C(=O)N[C@@H](CC(C)C)C(=O)N[C@@H](Cc1c[nH]c2ccccc12)C(=O)N[C@@H](CO)C(=O)N[C@@H](C)C(=O)N[C@@H](Cc1ccc(O)cc1)C(=O)N[C@@H](CCCCN)C(=O)N[C@@H](Cc1c[nH]cn1)C(=O)N[C@@H](CCCNC(=N)N)C(=O)N[C@@H](CCCCN)C(=O)N[C@H](C(=O)N[C@H](C(N)=O)[C@@H](C)CC)[C@@H](C)O)[C@@H](C)CC)[C@@H](C)CC [L-6-C5] (Pentanoyl-LGIKILWSAYKHRKTI-NH2)
HC, hemolytic concentration at 5% hemolytic activity (human erythrocytes): > 100 µM | EC50 [1]: 10.5 µM | critical aggregation concentration (CAC) [2]: 5.6 µM | MBC (E. coli; [3]): 6.3 µM (≈ 12.7 µg/mL) | MIC (E. coli; [3]): 6.3 µM (≈ 12.7 µg/mL) | MBC (E. coli; [4]): 6.3 µM (≈ 12.7 µg/mL) | MIC (E. coli; [4]): 6.3 µM (≈ 12.7 µg/mL) | MBC (E. coli; [5]): 6.3 µM (≈ 12.7 µg/mL) | MIC (E. coli; [5]): 6.3 µM (≈ 12.7 µg/mL) | MBC (E. coli; [6]): 6.3 µM (≈ 12.7 µg/mL) | MIC (E. coli; [6]): 6.3 µM (≈ 12.7 µg/mL) | MBC (S. aureus; [7]): 6.3 µM (≈ 12.7 µg/mL) | MIC (S. aureus; [7]): 6.3 µM (≈ 12.7 µg/mL) | MBC (S. aureus; [8]): 6.3 µM (≈ 12.7 µg/mL) | MIC (S. aureus; [8]): 6.3 µM (≈ 12.7 µg/mL) | MBC (S. aureus; [9]): 6.3 µM (≈ 12.7 µg/mL) | MIC (S. aureus; [9]): 6.3 µM (≈ 12.7 µg/mL) | MBC (S. aureus; [10]): 6.3 µM (≈ 12.7 µg/mL) | MIC (S. aureus; [10]): 6.3 µM (≈ 12.7 µg/mL)
